Laboratory results from patent US20230145868A1, “UREA INHIBITORS OF MICRO-RNA” (Board of Regents, The University of Texas System, priority 2020, published 2023).

What was measured:
[1] = Microsomal stability assay, human; type: in vitro ADME; settings: pH 7.4; human liver microsomes; 1 μM test compound; unit printed in b356 only
Method: (§1) The liver microsomal incubation mixture was composed of liver microsomes (with a concentration of 0.5 mg microsomal protein/ml), the test compound (1 μM), MgCl2 (3 mM), EDTA (1 mM) in potassium phosphate buffer (100 mM, pH 7.4). Control substrates used were Midazolam and Ketanserin. The reaction was initiated with the addition of an NADPH regeneration solution (1.3 mM NADPH) and maintained at 37° C. with shaking. At five sequential time points ranging from 0 to 45 min, aliquots of the mixture (50 μL) were removed and quenched with acetonitrile (100 μL) containing an internal standard control (imipramine) Samples were analyzed after vortexing and centrifugation by liquid chromatography-mass spectrometry (LC-MS/MS). The in vitro t1/2 was then calculated and clearance followed literature.

[2] = Microsomal stability assay, rat; type: in vitro ADME; settings: rat, liver microsomes, pH 7.4, rat liver microsomes; 1 μM test compound; unit printed in b356 only
Method: as §1

miR-10b [3] = test: Luciferase reporter assay of miR-10b inhibition, MCF7 cells; type: cell-based; settings: Homo sapiens, MCF7, 48 h
Excerpt: (§2) To identify miR-10b inhibitors, a luciferase reporter system was designed with complementary oligonucleotides for miR-10b.This luciferase reporter would repress Renilla luciferase signal in the presence of a functional mature miR-10b. However, in the presence of a small molecule that can inhibit mature miR-10b expression or affect its downstream function, the luciferase expression is restored again.
(§3) The PsiCHECK™-2 luciferase reporter vector was acquired from Promega™, Complementary oligonucleotides for hsa-miR-10b were designed based on the mature miRNA sequence and obtained from Thermo Fisher Scientific. In the design of the microRNA target sequence, several base pairs were added to have two different restriction sites recognizable by the enzyme SgfI at one side, and PmeI on the other (present in the vector as well). In addition, the insert was designed with a restriction site for SacI enzyme in order to have an additional site to digest the vector when monitoring colonies for the presence/absence of the insert. The designed oligonucleotides were annealed as follows: Complementary strands were mixed at a 1:1 molar ratio in a micro centrifuge tube. The mixture was diluted to a final concentration of 1 pmol/μl with a buffer solution of 10 mM Tris, 1 mM EDTA, and 50 mM NaCl (pH 8.0). Mixes were incubated at 95° C. for 5 min, and then the heat was reduced gradually for 70 min, until reaching 4° C. The annealed oligonucleotides were digested along with the PsiCHECK™2 vector with SgfI and PmeI and ligated at the 3′-UTR (downstream) of the Renilla luciferase reporter gene in the PsiCHECK™-2vector. Insert sequences were further confirmed in two ways: enzymatic digestion and sequencing.
(§4) MCF7 cells were seeded 24 h prior to transfection in 96 well plates (2.0×10^4 cells/well). For testing the sensitivity of the assay, antagomiRs and pre-miRs against miR-10b were used at a final concentration of 100 nM. For testing small molecule miRNA inhibitors, the compounds of interest were added to a final concentration of 10 μM. The assay was done in MCF7 or MDA-MB-231 cells at approximately 60% confluence using Lipofectamine in Opti-Mem media with the final vector concentration of 250 ng/mL. All transfections were performed in triplicate for statistical analysis. The cells were incubated at 37° C. for 6 h, followed by replacement of the transfected media with fresh media. After 48 h incubation, the media was removed, and cells were lysed and assayed with a Dual Luciferase Assay Kit (Promega) using a Vi-Tech luminometer. The ratio of Renilla to firefly luciferase expression was calculated for each of the triplicates.

[4] = Microsomal stability assay, mouse; type: in vitro ADME; settings: mouse, liver microsomes, pH 7.4, mouse liver microsomes; 1 μM test compound; unit printed in b356 only
Method: as §1

miR-10b [5] = test: Luciferase reporter assay of miR-10b inhibition, MDA-MB-231 cells; type: cell-based; settings: Homo sapiens, MDA-MB-231, 48 h
Excerpt: as §2, §3, §4

- CLint scaled at 1 μM [1]: 8.8 mL/min/kg
- half-life at 1 μM [1]: 3.28 h
- CLint scaled at 1 μM [2]: 20.4 mL/min/kg
- half-life at 1 μM [2]: 2.03 h
- CLint scaled at 1 μM [4]: 86.5 mL/min/kg
- half-life at 1 μM [4]: 1.05 h
SMILES: Cc1ccc(F)c(NC(=O)Nc2ccc(-c3cccc4[nH]nc(N)c34)cc2)c1 [Example 10, 1-(4-(3-amino-1H-indazol-4-yl)phenyl)-3-(2-fluoro-5-methylphenyl)urea, reference compound]
- fold induction at 10 µM (miR-10b [3]; Table 3, MCF7, 10 μM compound, vs negative control (DMSO), mean of triplicate, read-out: n-fold increase in luciferase expression, Mean): 2.5
- fold induction at 10 µM (miR-10b [3]; Table 3, MCF7, 10 μM compound, vs negative control (DMSO), replicate #1, read-out: n-fold increase in luciferase expression, #1): 2.74
- fold induction at 10 µM (miR-10b [3]; Table 3, MCF7, 10 μM compound, vs negative control (DMSO), replicate #2, read-out: n-fold increase in luciferase expression, #2): 2.52
- fold induction at 10 µM (miR-10b [3]; Table 3, MCF7, 10 μM compound, vs negative control (DMSO), replicate #3, read-out: n-fold increase in luciferase expression, #3): 2.25
- fold induction at 10 µM (miR-10b [3]; Table 4, MCF7, 10 μM compound, vs negative control (DMSO), mean of triplicate, read-out: n-fold increase in luciferase expression, Mean): 1.97
- fold induction at 10 µM (miR-10b [3]; Table 4, MCF7, 10 μM compound, vs negative control (DMSO), replicate #1, read-out: n-fold increase in luciferase expression, #1): 2.56
- fold induction at 10 µM (miR-10b [3]; Table 4, MCF7, 10 μM compound, vs negative control (DMSO), replicate #2, read-out: n-fold increase in luciferase expression, #2): 1.58
- fold induction at 10 µM (miR-10b [3]; Table 4, MCF7, 10 μM compound, vs negative control (DMSO), replicate #3, read-out: n-fold increase in luciferase expression, #3): 1.78
- fold induction at 10 µM (miR-10b [3]; Table 6, MCF7, second biological replicant, 10 μM compound, mean of triplicate, read-out: n-fold increase in luciferase expression, Mean): 17.9
- fold induction at 10 µM (miR-10b [3]; Table 6, MCF7, second biological replicant, 10 μM compound, replicate #1, read-out: n-fold increase in luciferase expression, #1): 25.6
- fold induction at 10 µM (miR-10b [3]; Table 6, MCF7, second biological replicant, 10 μM compound, replicate #2, read-out: n-fold increase in luciferase expression, #2): 14.6
- fold induction at 10 µM (miR-10b [3]; Table 6, MCF7, second biological replicant, 10 μM compound, replicate #3, read-out: n-fold increase in luciferase expression, #3): 13.4
- fold induction at 10 µM (miR-10b [5]; Table 5, MDA-MB-231, 10 μM compound, vs negative control (DMSO), mean of triplicate, read-out: n-fold increase in luciferase expression, Mean): 1.87
- fold induction at 10 µM (miR-10b [5]; Table 5, MDA-MB-231, 10 μM compound, vs negative control (DMSO), replicate #1, read-out: n-fold increase in luciferase expression, #1): 1.51
- fold induction at 10 µM (miR-10b [5]; Table 5, MDA-MB-231, 10 μM compound, vs negative control (DMSO), replicate #2, read-out: n-fold increase in luciferase expression, #2): 1.14
- fold induction at 10 µM (miR-10b [5]; Table 5, MDA-MB-231, 10 μM compound, vs negative control (DMSO), replicate #3, read-out: n-fold increase in luciferase expression, #3): 2.95
- fold induction at 10 µM (miR-10b [5]; Table 7, MDA-MB-231, second biological replicant, 10 μM compound, mean of triplicate, read-out: n-fold increase in luciferase expression, Mean): 1.97
- fold induction at 10 µM (miR-10b [5]; Table 7, MDA-MB-231, second biological replicant, 10 μM compound, replicate #1, read-out: n-fold increase in luciferase expression, #1): 2.99
- fold induction at 10 µM (miR-10b [5]; Table 7, MDA-MB-231, second biological replicant, 10 μM compound, replicate #2, read-out: n-fold increase in luciferase expression, #2): 2.24
- fold induction at 10 µM (miR-10b [5]; Table 7, MDA-MB-231, second biological replicant, 10 μM compound, replicate #3, read-out: n-fold increase in luciferase expression, #3): 0.69
